# Tests used:
# SAOS-2 = assay: Cytotoxicity against human SAOS-2 cells harbouring p53 R175H mutant incubated for 3 days by MTT assay; format: functional, cell-based; details: SAOS-2, 72 h
# [1] = Reduction in p53 R175H mutant protein level in human SAOS-2 cells assessed as ratio of test compound fluorescence to control fluorescence at 2 uM measured after 2 hrs by Hoechst 33342 staining based immunofluorescence assay; format: functional
SMILES,IC50 (SAOS-2),Ratio [1]
C/C=C/C=C/C=C/C1=C2C(=O)O[C@@H](C)C[C@@H](O)C[C@@H](O)[C@@H]3C(=O)C[C@@H](O)[C@H](O1)[C@H]23,21 µM,
C/C=C/C=C\C=C\C1=C2C(=O)O[C@@H](C)CCCC[C@@H]3C(=O)C=C[C@H](O1)[C@H]23,0.36 µM,0.57
C/C=C/C=C/C=C/C1=C2C(=O)O[C@@H](C)C[C@@H](O)C[C@@H](O)[C@@H]3C(=O)C=C[C@H](O1)[C@H]23,0.35 µM,0.4
C/C=C/C=C/C=C/C1=C2C(=O)O[C@@H](C)C[C@@H](O)C[C@@H](O)[C@H]3C(=O)C[C@@H](O)[C@H](O1)[C@H]23,12 µM,

# Source: ChEMBL document CHEMBL4840377, “Colletofragarone A2 and Colletoins A-C from a Fungus Colletotrichum sp. Decrease Mutant p53 Levels in Cells” (J Nat Prod, 2021)
